Test systems include IGROV-1; NCI/ADR-RES; U-251; SK-MEL-5; NCI-H226; SNB-19; KM12; OVCAR-8; MOLT-4; OVCAR-5; NCI-H23; SF-268; MDA-MB-435; A498; MDA-MB-231; SR; SNB-75; PC-3; SN12C; Hs-578T.
What all share (assay): NCI-60 cell line screen, 48 h

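The compound was tested at five concentrations on cells cultured in 96-well plates, with a 48-hour exposure period. GI50 marks 50% less growth.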 Calls of active or inactive are those of the source. Rule as the data show it: active = GI50 up to about 1.1 µM and inactive = higher. Where a SMILES comes first, the peptide text is derived from it. [ ]: non-standard residue; d: D form. Phe(4-NO2) = N[CH](Cc1ccc([N+](=O)[O-])cc1)C(=O)O

With `OC1(c2ccccc2)C2CCN(CC2)C1CN1CCOCC1` (stereo not drawn), the GI50 in the experiment on IGROV-1, in the experiment with NCI/ADR-RES, in the experiment on U-251, in the experiment on SK-MEL-5, in the experiment with NCI-H226 and in the experiment with SNB-19 was > 100 µM (inactive) throughout. In addition, the GI50 with KM12, with OVCAR-8, in the experiment on MOLT-4, in the experiment on OVCAR-5, with NCI-H23 and in the experiment with SF-268 was > 100 µM (inactive) throughout. Further, the GI50 in the experiment with MDA-MB-435, in the experiment with A498, in the experiment on MDA-MB-231, with SR, in the experiment on SNB-75 and in the experiment on PC-3 was > 100 µM (inactive) in each case. Also, in the experiment with SN12C, the GI50 is > 100 µM (inactive).

Take `Cc1cc(-c2c(F)cc3c4nn([C@H]5CC[C@@H](N(C)C)CC5)c(=O)c-4cn(C4CC4)c3c2F)cc(C)n1`: the GI50 is 1.66 µM (inactive) with IGROV-1; 0.173 µM (active) in the experiment with Hs-578T; 0.105 µM (active) in the experiment on U-251; 0.289 µM (active) in the experiment with SK-MEL-5; 0.101 µM (active) with NCI-H226; 0.309 µM (active) with SNB-19. Moreover, the GI50 in the experiment on KM12 was 0.313 µM (active); in the experiment with OVCAR-8, 0.221 µM (active); in the experiment with MOLT-4 it was < 0.0316 µM (active); in the experiment on OVCAR-5, 1.42 µM (inactive); in the experiment on NCI-H23, 0.132 µM (active); in the experiment on SF-268 it was 0.119 µM (active). Besides, the GI50 was 0.0229 µM (active) in the experiment with A498; 0.536 µM (active) in the experiment with MDA-MB-231; 0.0735 µM (active) with SR; 0.0512 µM (active) in the experiment on SNB-75; 1.56 µM (inactive) with PC-3; 0.168 µM (active) with SN12C.

Regarding `CC(=O)O[C@H]1C(=O)[C@@]2(C)[C@H]([C@H](OC(=O)c3ccccc3)[C@]3(O)C[C@H](OC(=O)[C@H](O)[C@@H](NC(=O)c4ccccc4)c4ccccc4)C(C)=C1C3(C)C)[C@]1(OC(C)=O)CO[C@@H]1C[C@@H]2O` [PACLITAXEL], the GI50 in the experiment on IGROV-1 was 0.00708 µM (active); in the experiment on NCI/ADR-RES it was 3.11 µM (inactive); in the experiment with Hs-578T, 0.00597 µM (active); in the experiment with U-251 it was 0.00384 µM (active); in the experiment on SK-MEL-5 it was 0.00388 µM (active); in the experiment on SNB-19 it was 0.0121 µM (active). Also, the GI50 with OVCAR-5 is 0.0783 µM (active); in the experiment on NCI-H23 it was 0.00396 µM (active); in the experiment on SF-268, 0.00658 µM (active); with MDA-MB-435, 0.00395 µM (active); with A498 it was 0.107 µM (active); in the experiment on MDA-MB-231, 0.054 µM (active). Also, the GI50 is 0.0182 µM (active) with PC-3 and 0.00481 µM (active) with SN12C.

Regarding `COc1ccc(/N=N/C(=O)NC(CC(C)C)C(=O)NC(Cc2ccccc2)C(=O)O)cc1` (stereo not drawn), the GI50 with IGROV-1 is 11.5 µM (inactive); in the experiment on NCI/ADR-RES, > 100 µM (inactive); in the experiment with Hs-578T, > 100 µM (inactive); in the experiment with U-251 it was > 100 µM (inactive); in the experiment with SK-MEL-5, 2.61 µM (inactive); in the experiment on NCI-H226, 23.3 µM (inactive). The GI50 in the experiment with SNB-19 was 72.9 µM (inactive); in the experiment with KM12, 11.9 µM (inactive); in the experiment with OVCAR-8, > 100 µM (inactive); in the experiment with MOLT-4 it was 0.706 µM (active); with OVCAR-5, 1.88 µM (inactive); in the experiment on NCI-H23, 16.3 µM (inactive). Moreover, the GI50 with SF-268 was 1.53 µM (inactive); in the experiment with MDA-MB-435, 0.705 µM (active); in the experiment on A498, > 100 µM (inactive); in the experiment on SNB-75, 61.4 µM (inactive); in the experiment with PC-3 it was 0.463 µM (active); in the experiment on SN12C, > 100 µM (inactive).

As to `O=C(O)CNC(=O)c1c2ccccc2nc2ccccc12`, the GI50 with IGROV-1, in the experiment with NCI/ADR-RES, in the experiment with U-251, in the experiment on SK-MEL-5, with NCI-H226 and with SNB-19 was > 100 µM (inactive) throughout. Further, the GI50 in the experiment on KM12, with OVCAR-8, in the experiment on MOLT-4, in the experiment with OVCAR-5, in the experiment with NCI-H23 and in the experiment with SF-268 was > 100 µM (inactive) each time. The GI50 with MDA-MB-435, in the experiment on A498, with MDA-MB-231, with SR, in the experiment on SNB-75 and in the experiment with PC-3 was > 100 µM (inactive) each time. Moreover, the GI50 with SN12C was > 100 µM (inactive).

Regarding `COc1ccc(/N=N/C(=O)NC(Cc2ccccc2)C(=O)O)cc1` (stereo not drawn), the GI50 in the experiment with IGROV-1, with NCI/ADR-RES, in the experiment with Hs-578T, with U-251, in the experiment with SK-MEL-5 and in the experiment on NCI-H226 was > 100 µM (inactive) each time. Further, the GI50 in the experiment on SNB-19, in the experiment on KM12, with OVCAR-8, in the experiment with MOLT-4, in the experiment with OVCAR-5 and in the experiment on NCI-H23 was > 100 µM (inactive) throughout. Further, the GI50 in the experiment on SF-268 is > 100 µM (inactive); in the experiment with MDA-MB-435 it was > 100 µM (inactive); in the experiment on A498, > 100 µM (inactive); in the experiment with SR it was > 100 µM (inactive); in the experiment with SNB-75, > 100 µM (inactive); in the experiment with PC-3, 95.7 µM (inactive). The GI50 in the experiment on SN12C was > 100 µM (inactive).

Turning to `O=C(c1ccncc1)C1C(=O)c2ccccc2C1C1(O)c2ccccc2CC1C(O)c1ccncc1` (stereo not drawn), the GI50 in the experiment with IGROV-1 is 40.5 µM (inactive); with NCI/ADR-RES, 46.6 µM (inactive); with Hs-578T, 38.6 µM (inactive); in the experiment on U-251, 41 µM (inactive); in the experiment with SK-MEL-5, 36 µM (inactive); in the experiment with NCI-H226 it was > 100 µM (inactive). For the same compound, the GI50 is 46.2 µM (inactive) with SNB-19; 35.3 µM (inactive) with KM12; 60 µM (inactive) with OVCAR-8; 15.1 µM (inactive) in the experiment with MOLT-4; 65.6 µM (inactive) in the experiment with OVCAR-5; 48.6 µM (inactive) in the experiment on NCI-H23. In addition, the GI50 with SF-268 was 46.7 µM (inactive); in the experiment on MDA-MB-435, 16.9 µM (inactive); in the experiment with A498, 49.1 µM (inactive); in the experiment with MDA-MB-231, 39.2 µM (inactive); with SR it was 36.7 µM (inactive); in the experiment with SNB-75, 50 µM (inactive). The GI50 in the experiment with SN12C is 46.9 µM (inactive).

As to `CN1c2ccccc2C(=O)NC12CCN(CC1COc3ccccc3O1)CC2` (stereo not drawn), the GI50 was 45.1 µM (inactive) with IGROV-1; 31.6 µM (inactive) with NCI/ADR-RES; 32.7 µM (inactive) with Hs-578T; 40.2 µM (inactive) with U-251; 16.2 µM (inactive) in the experiment on SK-MEL-5; 19.2 µM (inactive) with NCI-H226. For the same compound, the GI50 in the experiment with SNB-19 was 31.3 µM (inactive); with KM12 it was 32.6 µM (inactive); in the experiment on OVCAR-8 it was 60.5 µM (inactive); with MOLT-4, 23.1 µM (inactive); in the experiment with OVCAR-5, 48.6 µM (inactive); in the experiment with NCI-H23, 45.8 µM (inactive). Further, the GI50 is > 100 µM (inactive) in the experiment with SF-268; 33.4 µM (inactive) in the experiment on MDA-MB-435; 20.3 µM (inactive) in the experiment on A498; 23.8 µM (inactive) with SR; > 100 µM (inactive) with SNB-75.

For the compound `COC(=O)CCC(NC(=O)C(CCC(=O)OC)NC(=O)C(CCC(=O)OC)NC(=O)C(CCC(=O)OC)NC(=O)C(CCC(=O)OC)NC(=O)C(Cc1ccc([N+](=O)[O-])cc1)NC(=O)C(CCC(=O)OC)NC(=O)C(CCC(=O)OC)NC(=O)C(CCC(=O)OC)NC(=O)C(CCC(=O)OC)NC(=O)C(CCC(=O)OC)NC(C)=O)C(N)=O` (stereo not drawn) (Ac-E(OMe)E(OMe)E(OMe)E(OMe)E(OMe)[Phe(4-NO2)]E(OMe)E(OMe)E(OMe)E(OMe)E(OMe)-NH2; configuration not given here), the GI50 in the experiment with IGROV-1 was > 100 µM (inactive); in the experiment with NCI/ADR-RES, > 100 µM (inactive); in the experiment with Hs-578T it was 20 µM (inactive); in the experiment on U-251, > 100 µM (inactive); in the experiment with SK-MEL-5, 26.1 µM (inactive); with SNB-19 it was > 100 µM (inactive). The GI50 in the experiment on KM12, in the experiment on OVCAR-8, in the experiment with MOLT-4, in the experiment with OVCAR-5, with NCI-H23 and in the experiment with SF-268 was > 100 µM (inactive) each time. Moreover, the GI50 is > 100 µM (inactive) in the experiment on MDA-MB-435; 48.1 µM (inactive) with MDA-MB-231; > 100 µM (inactive) with SR; > 100 µM (inactive) in the experiment with SNB-75; > 100 µM (inactive) with SN12C.

For the compound `CC(=O)C1C(=O)C(=O)N(c2ccccc2)C1=O` (stereo not drawn), the GI50 in the experiment with IGROV-1, with NCI/ADR-RES, in the experiment on Hs-578T, with U-251, in the experiment on SK-MEL-5 and in the experiment on NCI-H226 was > 100 µM (inactive) in each case. For the same compound, the GI50 in the experiment on SNB-19, in the experiment on KM12, in the experiment with OVCAR-8, in the experiment on MOLT-4, with OVCAR-5 and with NCI-H23 was > 100 µM (inactive) in each case. Besides, the GI50 in the experiment with SF-268, in the experiment with MDA-MB-435, in the experiment with MDA-MB-231, in the experiment with SNB-75, in the experiment on PC-3 and in the experiment on SN12C was > 100 µM (inactive) throughout.

These data come from ChEMBL document CHEMBL1201862, “PubChem BioAssay data set” (2004).
